Source: ChEMBL document CHEMBL4184202, “New lignans attenuating cognitive deterioration of Aβ transgenic flies discovered in Acorus tatarinowii” (Bioorg Med Chem Lett, 2018)
Calls of active or inactive are those of the source. The rule behind the calls is not given here.

Test system: Drosophila melanogaster
Experiment: Antialzheimer disease activity in heterozygous transgenic Alzheimer's disease model fruit fly under control of elav-Gal4'C155 (P35*H29.3) expressing Abeta42 assessed as attenuation of cognitive deterioration by measuring increase in performance index by Pavlovian olfactory test
Type: functional, organism-based

Row | Compound | Activity
1 | CC12CC3CC(C)(C1)CC(N)(C3)C2 | Active
2 | COc1cc([C@H]2O[C@@H](c3ccc(OC)c(OC)c3)[C@H](C)[C@@H]2C)ccc1O | Active
3 | COc1ccc(C(=O)[C@H]2CO[C@@H](c3ccc(OC)c(OC)c3)[C@@H]2C)cc1OC (racemic) | Active
4 | C/C=C/c1cc(OC)c2c(c1)[C@@H](C)[C@H](c1ccc(OC)c(OC)c1)O2 (relative stereo) | Active
5 | C/C=C/c1ccc(O[C@H](C)[C@@H](O)c2cc(OC)c(OC)c(OC)c2)c(OC)c1 (relative stereo) | Active
